According to ChEMBL document CHEMBL1201862, “PubChem BioAssay data set” (2004):
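In this assay, cells in 96-well plates receive the compound at five concentrations for 48 hours. Endpoints are linearly interpolated between the surrounding concentrations. GI50 = concentration required for 50% inhibition of growth.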 Calls of active or inactive are those of the source. No stated cut-off is given here; in the data, active = GI50 up to about 1.1 µM and inactive = higher.

What was measured:
Assay in all cases: NCI tumour cell line growth inhibition, 48 h
[1] = system: A498
[2] = system: KM12
[3] = system: IGROV-1
[4] = system: OVCAR-4
[5] = system: MOLT-4
[6] = system: UACC-62
[7] = system: TK-10
[8] = system: RXF 393
[9] = system: OVCAR-5
[10] = system: NCI-H522
[11] = system: ACHN
[12] = system: SF-539
[13] = system: HOP-92
[14] = system: SK-MEL-5
[15] = system: SK-OV-3
[16] = system: UACC-257
[17] = system: SK-MEL-28
[18] = system: NCI-H226
[19] = system: Malme-3M

| SMILES | GI50 [1] | GI50 [2] | GI50 [3] | GI50 [4] | GI50 [5] | GI50 [6] | GI50 [7] | GI50 [8] | GI50 [9] | GI50 [10] | GI50 [11] | GI50 [12] | GI50 [13] | GI50 [14] | GI50 [15] | GI50 [16] | GI50 [17] | GI50 [18] | GI50 [19] |
| --- | --- | --- | --- | --- | --- | --- | --- | --- | --- | --- | --- | --- | --- | --- | --- | --- | --- | --- | --- |
| COc1cccc2c1C(=O)c1c(O)c3c(c(O)c1C2=O)C[C@@](O)(C(C)=O)C[C@@H]3OC1CC([N+]([O-])(Cc2ccccc2)Cc2ccccc2)C(O)C(C)O1 (some centres not stated) | 2.46 µM (inactive) | 1.48 µM (inactive) | 1.36 µM (inactive) | 1.77 µM (inactive) | 0.191 µM (active) | 1.47 µM (inactive) | 1.6 µM (inactive) | 1.21 µM (inactive) | 1.79 µM (inactive) | 1.39 µM (inactive) | 1.22 µM (inactive) | 1.26 µM (inactive) | 1.52 µM (inactive) | 1.35 µM (inactive) | 4.2 µM (inactive) | 1.71 µM (inactive) | – | – | – |
| NC(=O)CC(N/C=C1/N=C(c2ccccc2)OC1=O)C(=O)O (configuration not stated) | > 100 µM (inactive) | > 100 µM (inactive) | > 100 µM (inactive) | > 100 µM (inactive) | – | > 100 µM (inactive) | > 100 µM (inactive) | > 100 µM (inactive) | > 100 µM (inactive) | > 100 µM (inactive) | > 100 µM (inactive) | > 100 µM (inactive) | > 100 µM (inactive) | > 100 µM (inactive) | > 100 µM (inactive) | > 100 µM (inactive) | > 100 µM (inactive) | > 100 µM (inactive) | > 100 µM (inactive) |
| CN(CCCCN)c1ccc2c(=O)[nH][nH]c(=O)c2c1 | > 100 µM (inactive) | > 100 µM (inactive) | > 44.9 µM (inactive) | > 100 µM (inactive) | > 100 µM (inactive) | > 41.8 µM (inactive) | > 100 µM (inactive) | > 100 µM (inactive) | > 100 µM (inactive) | > 100 µM (inactive) | > 100 µM (inactive) | > 100 µM (inactive) | > 100 µM (inactive) | > 10 µM (inactive) | > 100 µM (inactive) | > 100 µM (inactive) | > 100 µM (inactive) | > 100 µM (inactive) | > 100 µM (inactive) |
| O=C1c2ccccc2C(=O)c2c1cc(S(=O)(=O)O)c(O)c2O [Alizarin Red S] | > 100 µM (inactive) | > 100 µM (inactive) | > 100 µM (inactive) | > 100 µM (inactive) | > 100 µM (inactive) | > 100 µM (inactive) | > 100 µM (inactive) | > 100 µM (inactive) | > 100 µM (inactive) | > 100 µM (inactive) | > 100 µM (inactive) | > 100 µM (inactive) | 90.8 µM (inactive) | – | > 100 µM (inactive) | > 100 µM (inactive) | > 100 µM (inactive) | > 100 µM (inactive) | – |
| CN1C(=O)C(=O)c2cc3c(c4c2c1cc1ccccc14)OCO3 [CEPHARADIONE A] | > 100 µM (inactive) | 18.3 µM (inactive) | 37.6 µM (inactive) | 58.6 µM (inactive) | 17.9 µM (inactive) | 16.9 µM (inactive) | 52.5 µM (inactive) | 25.6 µM (inactive) | 48.8 µM (inactive) | 22.6 µM (inactive) | 18.8 µM (inactive) | 45.6 µM (inactive) | > 100 µM (inactive) | 28.4 µM (inactive) | 50.4 µM (inactive) | 51.5 µM (inactive) | 40.5 µM (inactive) | 25.2 µM (inactive) | 38.8 µM (inactive) |
| CCOC(=O)C(=Cc1ccccc1Br)C(=O)OCC | 2.03 µM (inactive) | 1.62 µM (inactive) | 1.96 µM (inactive) | 4.09 µM (inactive) | 0.32 µM (active) | 1.72 µM (inactive) | 3.47 µM (inactive) | 2.1 µM (inactive) | 6.5 µM (inactive) | 1.64 µM (inactive) | 2.59 µM (inactive) | 2.34 µM (inactive) | 3.4 µM (inactive) | 1.85 µM (inactive) | – | 3.58 µM (inactive) | 2.4 µM (inactive) | 3.51 µM (inactive) | 3.48 µM (inactive) |
| C[C@@H]1[C@H](O)CC2=C(CC[C@@H](O)C2(C)C)[C@@]1(CO)CCc1ccoc1 | > 50 µM (inactive) | > 50 µM (inactive) | > 50 µM (inactive) | > 50 µM (inactive) | 34.7 µM (inactive) | > 50 µM (inactive) | > 50 µM (inactive) | > 50 µM (inactive) | > 50 µM (inactive) | – | > 50 µM (inactive) | > 50 µM (inactive) | > 50 µM (inactive) | > 50 µM (inactive) | > 50 µM (inactive) | > 50 µM (inactive) | > 50 µM (inactive) | > 50 µM (inactive) | > 50 µM (inactive) |
| O=C(NC(=S)NC(=O)c1cc(O)c(O)c(O)c1)c1cc(O)c(O)c(O)c1 | > 100 µM (inactive) | 24.5 µM (inactive) | – | 20.4 µM (inactive) | > 10 µM (inactive) | 23.7 µM (inactive) | 28.4 µM (inactive) | 18 µM (inactive) | 27 µM (inactive) | 22.7 µM (inactive) | 23 µM (inactive) | 30.8 µM (inactive) | 32.7 µM (inactive) | 24.5 µM (inactive) | 23.2 µM (inactive) | 22.3 µM (inactive) | 27.8 µM (inactive) | 39.1 µM (inactive) | – |
